Reference: US20260183301A1, “TREATING DISEASES AND DISORDERS WITH IRAK4-MODIFYING COMPOUNDS” (Curis, Inc., priority 2022, published 2026)
“Also recorded” adds a separate entry of the source.

Legend:
[1] = Phase I dose escalation trial in NHL: safety and tolerance (adverse effects, DLT)
Description: (§1) Seven dosing cohorts included 50 and 100 mg QD, and 50, 100, 200, 300, or 400 mg BID of daily continuous oral monotherapy in 21-Day cycles. Objective included safety and tolerance (primary), pk/pd and early efficacy (secondary), and biomarker correlations (exploratory). 31 patients with resistant or refractory, advanced NHL have been enrolled.

[2] = test system: cytokine; assay: Pharmacodynamic cytokine changes in Phase I NHL patients; type: in vivo, human
[3] = Oral pharmacokinetics in humans; type: in vivo, human
Description: as §1

[4] = test system: NF-kappaB p-p50; assay: IHC of NF-kappaB p-p50 in paired tumor biopsies of NHL patients before and after treatment; type: in vivo, human; settings: paired tumor biopsy samples (3 cases) before and after treatment
Description: Formalin-fixed, paraffin-embedded sections of human tonsil and lymphoma were used. Tissue sections (5 μm) were deparaffinized, and antigen retrieval was carried out at 90-100° C. in citrate buffer for 10-40 min. The sections were incubated in 1% […] for 10 minutes to quench endogenous tissue peroxidase. Tissue sections were then incubated with primary NF-κB p-p50-specific antibody (at 1:300 dilution) for approximately 16 h at 4° C. The primary NF-κB p-p50-specific antibody used NF-κB p-p50 (S337), sc-271908 from Santa Cruz Biotechnology.
The slides were stained using a standard EnVision+System-HRP kit (DAKO, Carpinteria, CA) according to the manufacture's protocol. Immunohistochemical reactions were developed with diaminobenzidine as the chromogenic peroxidase substrate, and slides were counterstained with hematoxylin. Negative control samples included replacement of the primary antibody with nonimmune IgG1 (Dako).

[5] = 300 mg BID, N = 6, [E] not defined
[6] = 400 mg BID, N = 8, [E] not defined

Compound: Cc1cc(-c2nc(C(=O)Nc3cc4oc(N5CCOCC5)nc4nc3N3CC[C@@H](O)C3)co2)ccn1 [Compound 1, emavusertib]
- Upper respiratory infection, All Grades ([1]; 300 mg BID (n = 6)): 0%
- Upper respiratory infection, Grade 3 or 4 ([1]; 300 mg BID (n = 6)): 0%
- Vomiting, All Grades ([1]; 300 mg BID (n = 6)): 20%
- Vomiting, Grade 3 or 4 ([1]; 300 mg BID (n = 6)): 20%
- Anemia, All Grades ([1]; 300 mg BID, N = 6): 2 (33.3) n (%)
- Anemia, Grade 3 or Higher ([1]; 300 mg BID, N = 6): 0 n (%)
- Neutropenia, All Grades ([1]; 300 mg BID, N = 6): 1 (16.7) n (%)
- Neutropenia, Grade 3 or Higher ([1]; 300 mg BID, N = 6): 1 (16.7) n (%)
- Thrombocytopenia, All Grades ([1]; 300 mg BID, N = 6): 0 n (%)
- Thrombocytopenia, Grade 3 or Higher ([1]; 300 mg BID, N = 6): 0 n (%)
- Anemia, All Grades [E] [1, 5]: [3]
- Neutropenia, All Grades [E] [1, 5]: [5]
- Neutropenia, Grade 3 or Higher [E] [1, 5]: [1]
- DLT ([1]; 300 mg BID, six patients): without DLT
- Back pain, All Grades ([1]; 400 mg BID (n = 8)): 12.5%
- Back pain, Grade 3 or 4 ([1]; 400 mg BID (n = 8)): 0%
- Constipation, All Grades ([1]; 400 mg BID (n = 8)): 20%
- Constipation, Grade 3 or 4 ([1]; 400 mg BID (n = 8)): 0%
- Cough, All Grades ([1]; 400 mg BID (n = 8)): 0%
- Cough, Grade 3 or 4 ([1]; 400 mg BID (n = 8)): 0%
- Dehydration, All Grades ([1]; 400 mg BID (n = 8)): 12.5%
- Dehydration, Grade 3 or 4 ([1]; 400 mg BID (n = 8)): 0%
- Diarrhea, All Grades ([1]; 400 mg BID (n = 8)): 25%
- Diarrhea, Grade 3 or 4 ([1]; 400 mg BID (n = 8)): 0%
- Dizziness, All Grades ([1]; 400 mg BID (n = 8)): 25%
- Dizziness, Grade 3 or 4 ([1]; 400 mg BID (n = 8)): 0%
- Dyspnoe, All Grades ([1]; 400 mg BID (n = 8)): 12.5%
- Dyspnoe, Grade 3 or 4 ([1]; 400 mg BID (n = 8)): 12.5%
- Fatigue, All Grades ([1]; 400 mg BID (n = 8)): 50%
- Fatigue, Grade 3 or 4 ([1]; 400 mg BID (n = 8)): 0%
- Headache, All Grades ([1]; 400 mg BID (n = 8)): 12.5%
- Headache, Grade 3 or 4 ([1]; 400 mg BID (n = 8)): 0%
- Insomnia, All Grades ([1]; 400 mg BID (n = 8)): 12.5%
- Insomnia, Grade 3 or 4 ([1]; 400 mg BID (n = 8)): 0%
- Muscle weakness, All Grades ([1]; 400 mg BID (n = 8)): 12.5%
- Muscle weakness, Grade 3 or 4 ([1]; 400 mg BID (n = 8)): 0%
- Myalgia, All Grades ([1]; 400 mg BID (n = 8)): 37.5%
- Myalgia, Grade 3 or 4 ([1]; 400 mg BID (n = 8)): 0%
- Nausea, All Grades ([1]; 400 mg BID (n = 8)): 50%
- Nausea, Grade 3 or 4 ([1]; 400 mg BID (n = 8)): 0%
- Oedema, All Grades ([1]; 400 mg BID (n = 8)): 0%
- Oedema, Grade 3 or 4 ([1]; 400 mg BID (n = 8)): 0%
- Peripheral sensory neuropathy, All Grades ([1]; 400 mg BID (n = 8)): 25%
- Peripheral sensory neuropathy, Grade 3 or 4 ([1]; 400 mg BID (n = 8)): 0%
- Rhabdomyolysis, All Grades ([1]; 400 mg BID (n = 8)): 25%
- Rhabdomyolysis, Grade 3 or 4 ([1]; 400 mg BID (n = 8)): 25%
- Upper respiratory infection, All Grades ([1]; 400 mg BID (n = 8)): 12.5%
- Upper respiratory infection, Grade 3 or 4 ([1]; 400 mg BID (n = 8)): 0%
- Vomiting, All Grades ([1]; 400 mg BID (n = 8)): 25%
- Vomiting, Grade 3 or 4 ([1]; 400 mg BID (n = 8)): 0%
- Anemia, All Grades ([1]; 400 mg BID, N = 8): 1 (12.5) n (%)
- Anemia, Grade 3 or Higher ([1]; 400 mg BID, N = 8): 1 (12.5) n (%)
- Neutropenia, All Grades ([1]; 400 mg BID, N = 8): 2 (25.0) n (%)
- Neutropenia, Grade 3 or Higher ([1]; 400 mg BID, N = 8): 0 n (%)
- Thrombocytopenia, All Grades ([1]; 400 mg BID, N = 8): 1 (12.5) n (%)
- Thrombocytopenia, Grade 3 or Higher ([1]; 400 mg BID, N = 8): 1 (12.5) n (%)
- Anemia, All Grades [E] [1, 6]: [1]
- Anemia, Grade 3 or Higher [E] [1, 6]: [1]
- Neutropenia, All Grades [E] [1, 6]: [3]
- Thrombocytopenia, All Grades [E] [1, 6]: [2]
- Thrombocytopenia, Grade 3 or Higher [E] [1, 6]: [2]
- DLT-evaluable patients with Grade 3 rhabdomyolysis (DLTs) ([1]; 400 mg BID, reversible after treatment interruption): 2 of 5
- Grade 3 combined episodes of neutropenia, anemia, thrombocytopenia ([1]; 18 patients at 200 to 400 mg BID): 4
- toxic deaths ([1]; Phase I NHL): No toxic deaths
- overall safety and tolerance ([1]; Phase I NHL, 50 mg QD to 400 mg BID): well tolerated; also recorded: good safety and tolerance
- creatine phosphokinase (CPK) elevation, grade ([1]; WM patient, 200 mg po BID, asymptomatic, resolved with exercise moderation): grade 2
- tolerability ([1]; WM patient, continuous oral treatment for close to 18 months): well tolerated
- tolerability ([1]; WM patient, first dose level 50 mg): without adverse events
- safety and tolerability profile ([1]; at RP2D (300 mg BID)): acceptable safety and tolerability profile
- grade of most non-hematologic TEAEs ([1]; diarrhea, vomiting, fatigue, dyspnea, myalgia): Grade 1 or 2
- pharmacodynamic changes in cytokines [2]: cytokine reductions
- accumulation ([3]; multiple daily single dose administration): Minimal to no accumulation
- absorption ([3]; oral administration): rapidly absorbed
- exposure versus dose ([3]; oral administration): dose-proportional increase in exposure
- time of maximum plasma concentrations ([3]; oral administration, post dose): 0.5 to 8 h
- accumulation ([3]; steady state, multiple twice daily dose administration): Moderate accumulation
- NF-kappaB p-p50 expression in tumors [4]: significant downregulation; also recorded: inhibited
